In one assay the test system is TRHR335 with OxR2. Kind of assay: eBRET/BRET: truncated TRHR335/Rluc + tagged beta-arrestin + OxR2 as IG3. The format is cell-based. For orientation: Bioluminescence resonance energy transfer reports proximity on the nanometre scale.
Assay [1] addresses T1, thyrotropin releasing hormone receptor (TRHR) (Rattus norvegicus, UniProt Q01717).
T1 construct: expressed in transfected cells; host or cells: HEK293 (HEK293FT)
T1 sequence (Q01717 1-412): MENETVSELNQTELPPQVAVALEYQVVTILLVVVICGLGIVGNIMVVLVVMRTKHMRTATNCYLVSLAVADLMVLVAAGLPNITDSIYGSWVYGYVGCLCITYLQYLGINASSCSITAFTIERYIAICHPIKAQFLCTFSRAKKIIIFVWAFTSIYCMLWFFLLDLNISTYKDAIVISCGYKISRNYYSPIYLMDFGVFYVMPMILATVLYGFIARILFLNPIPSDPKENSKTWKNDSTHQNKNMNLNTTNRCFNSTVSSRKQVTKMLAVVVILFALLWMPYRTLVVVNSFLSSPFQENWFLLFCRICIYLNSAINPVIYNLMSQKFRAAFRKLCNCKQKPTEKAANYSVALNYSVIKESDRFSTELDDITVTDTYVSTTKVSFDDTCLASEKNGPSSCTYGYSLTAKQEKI
Put plainly: eBRET/BRET beta-arrestin recruitment to TRHR/Rluc without IG3 (pcDNA3) in HEK293 cells. The assay is classed as cell-based. The source says: Briefly, referring to FIGS. 1 to 3, the IGs are provided in the form of the two receptors (TRHR and OxR). One of the two is attached to an RC (IG1-RC1, IG3). A second IG (IG2-RC2) is derived from a molecule that interacts with the receptors upon ligand binding (e.g. beta-arrestin, or a mutant thereof). The detection system not only detects the formation of the TRHR-OxR heterodimer but can distinguish whether a ligand or drug acts as an agonist, partial agonist, antagonist, inverse agonist or partial inverse agonist at the receptor hetero-dimer.
Cells were seeded in 6-well plates at a density of approximately 630,000 cells/well (HEK293FT) or approximately 150,000 cells/well (COS-7) and maintained at 37° C., 5% CO2 in Complete Media (DMEM containing 0.3 mg/ml glutamine, 100 IU/ml penicillin and 100 μg/ml streptomycin (Gibco)) supplemented with 10% fetal calf serum (FCS; Gibco). Transient transfections were carried out 24 h after seeding using GeneJuice (Novagen) or Metafectene (Biontex) according to manufacturer instructions. 24 h post-transfection, cells were washed with PBS, detached using 0.05% trypsin/0.53 mM EDTA, resuspended in HEPES-buffered phenol red free Complete Media containing 5% FCS and added to a poly-L-lysine-coated white microplate (Nunc). 48 h post-transfection, eBRET assays were carried out following pre-incubation of cells with EnduRen™ (Promega) at a final concentration of 30-40 μM, at 37° C., 5% CO2 for 2 h. For original BRET studies, the HEPES-buffered phenol red free Complete Media was replaced with PBS and coelenterazine h (Molecular Probes) added to a final concentration of 5 μM immediately prior to commencing the assay. BRET measurements were taken at 37° C. using the Victor Light plate reader with Wallac 1420 software (Perkin-Elmer). Filtered light emissions were sequentially measured for 3-5 s in each of the ‘donor wavelength window’ (400-475 nm) and ‘acceptor wavelength window’ (>500 nm for EGFP or 520-540 nm for EYFP, Topaz (TYFP) or Venus). The BRET signal observed between interacting proteins is normalized by subtracting the background BRET ratio. This can be done in one of two ways (see Pfleger et al. (2006) Cell Signal 18, 1664-1670; Pfleger et al. (2006) Nat Protoc 1, 336-344): 1) the ratio of light emission through the acceptor wavelength window over the 400-475 nm emission for a cell sample containing only the donor construct is subtracted from the same ratio for a sample containing the interacting acceptor and donor fusion proteins; 2) the ratio of light emission through the ‘acceptor wavelength window’ over the 400-475 nm emission for a cell sample treated with vehicle is subtracted from the same ratio for a second aliquot of the same cell sample treated with ligand. In the following examples, the first calculation will be used, unless the signal is described as the ‘ligand-induced BRET ratio’. Alternatively, and particularly when illustrating z-factor data (Zhang et al. (1999) J Biomol Screen 4, 67-73), the BRET signal observed between interacting proteins can be shown in conjunction with (as oppose to being subtracted by) the background BRET ratio to evaluate error associated with the BRET signal observed between interacting proteins and the error associated with the background BRET ratio independently. In this case, data are shown as ‘fluorescence/luminescence’ being the ratio of light emission through the ‘acceptor wavelength window’ over the 400-475 nm emission for a particular cell sample. Unless otherwise stated, BRET signals were measured in 96-well microplates.
Referring now to FIG. 4, eBRET signals were measured from cells transiently co-expressing TRHR/Rluc and barr2/Venus with either pcDNA3, OxR2, CXCR2, HA-MC3R, HA-MC4R, D2LR or D2SR following the treatment of each with their respective ligands.
Referring now to FIG. 5, eBRET signals were measured from cells transiently co-expressing TRHR/Rluc and EGFP/barr1 or EGFP/barr2 with either pcDNA3 or OXR2. […]

Where [2] appears, read: TRHR335/Rluc + EGFP/barr1 + OxR2, FIG. 9.
The mark [3] stands for this setting: TRHR/Rluc only (no OxR2) + EGFP/barr1 or EGFP/barr2, FIG. 5.

Ends that are not written are not given here.

Protocol for TRHR335 with OxR2: Cells were seeded in 6-well plates at a density of approximately 630,000 cells/well (HEK293FT) or approximately 150,000 cells/well (COS-7) and maintained at 37° C., 5% CO2 in Complete Media (DMEM containing 0.3 mg/ml glutamine, 100 IU/ml penicillin and 100 μg/ml streptomycin (Gibco)) supplemented with 10% fetal calf serum (FCS; Gibco). Transient transfections were carried out 24 h after seeding using GeneJuice (Novagen) or Metafectene (Biontex) according to manufacturer instructions. 24 h post-transfection, cells were washed with PBS, detached using 0.05% trypsin/0.53 mM EDTA, resuspended in HEPES-buffered phenol red free Complete Media containing 5% FCS and added to a poly-L-lysine-coated white microplate (Nunc). 48 h post-transfection, eBRET assays were carried out following pre-incubation of cells with EnduRen™ (Promega) at a final concentration of 30-40 μM, at 37° C., 5% CO2 for 2 h. For original BRET studies, the HEPES-buffered phenol red free Complete Media was replaced with PBS and coelenterazine h (Molecular Probes) added to a final concentration of 5 μM immediately prior to commencing the assay. […] Filtered light emissions were sequentially measured for 3-5 s in each of the ‘donor wavelength window’ (400-475 nm) and ‘acceptor wavelength window’ (>500 nm for EGFP or 520-540 nm for EYFP, Topaz (TYFP) or Venus). The BRET signal observed between interacting proteins is normalized by subtracting the background BRET ratio. […] In the following examples, the first calculation will be used, unless the signal is described as the ‘ligand-induced BRET ratio’. […] In this case, data are shown as ‘fluorescence/luminescence’ being the ratio of light emission through the ‘acceptor wavelength window’ over the 400-475 nm emission for a particular cell sample. Unless otherwise stated, BRET signals were measured in 96-well microplates.
Referring now to FIG. 9, eBRET signals were measured from cells transiently co-expressing TRHR335/Rluc and EGFP/barr1 with either OxR2 or TRHR.

As for “OxA: orexin A; known orexin receptor modulator, used as IG3 ligand (modulator) (QPLPDCCRQKTCSCRLYELLHGAGNHAAGILTL; ends and bridges not checked; cysteine pairing not given here; UniProt O43612 34-66, looked up)”, the “time for eBRET signal to reach plateau” value in the assay with TRHR335 with OxR2 (setting [2]) is recorded as “about 20 minutes”. Also, the eBRET signal entry in assay [1] (OxA added to cells lacking HA-OxR2, FIG. 7) is listed as “No increase in eBRET signal above baseline”. Besides, the “cumulative eBRET signal” value in assay [1] (TRHR/Rluc + EGFP/barr1, 0 μg OxR2 DNA/well, 10^−6M OxA, 83 mins, FIG. 16) is recorded as “no signal was recorded”. Moreover, in assay [1] (setting [3]), the “effect of OxA on TRH-induced eBRET signal” value was “no difference”.

Take `NC(=O)[C@@H]1CCCN1C(=O)[C@H](Cc1cnc[nH]1)NC(=O)[C@@H]1CCC(=O)N1` [TRH, pGlu-His-Pro-NH2]: the eBRET signal result in the assay with TRHR335 with OxR2 (setting [2]) was “no eBRET signal above baseline”; in assay [1] (TRHR/Rluc only (no HA-OxR2), FIG. 7), “rapid increase in eBRET signal reaching a peak in the first few minutes”; in assay [1] (TRHR/Rluc only (no OxR2) + EGFP/barr1 or EGFP/barr1R169E, FIG. 8) it was “rapid increase in eBRET signal reaching a peak in the first few minutes”; in assay [1] (setting [3]) it was “rapid stimulation of the eBRET signal”. Besides, the “BRET signal (dose response)” value in the assay on TRHR335 with OxR2 (TRHR335/Rluc + barr2/Venus + OxR2, FIG. 15) is “does not result in a BRET signal”. Moreover, the eBRET signal peak result in assay [1] (HEK293, TRHR/Rluc + barr2/Venus + pcDNA3, ligand 10^−6M, 37 C, FIG. 4) was “greater than 0.17”. In addition, the “time to eBRET signal peak” value in assay [1] (HEK293, TRHR/Rluc + barr2/Venus + pcDNA3, ligand 10^−6M, FIG. 4) is listed as “Within the first minute”. In addition, the “dose-response Hill slope” value in assay [1] (TRHR/Rluc + barr2/Venus + pcDNA3, FIG. 10) is on record as “approximately 1”. Also, the “eBRET signal with EGFP/barr1R169E relative to EGFP/barr1” value in assay [1] (TRHR/Rluc only (no OxR2), FIG. 8) is given as “lower than that for EGFP/barr1”.

Values taken from US20100234417A1, “THYROTROPIN RELEASING HORMONE RECEPTOR-OREXIN RECEPTOR HETERO-DIMERS/-OLIGOMERS” (DIMERIX BIOSCIENCE PTY LTD., priority 2006, published 2010).
